{
  "source": "paper PMC7371993",
  "about": "“Targeting of the C-Type Lectin Receptor Langerin Using Bifunctional Mannosylated Antigens” (Frontiers in Cell and Developmental Biology, 2020)",
  "data": [
    {"molecular_target": "T1, Langerin ECD (Homo sapiens, UniProt Q9UJ71)", "T1 construct": "The ECD of Langerin (residues 68–328) was overexpressed and purified as previously described; made in house", "T1 sequence (Q9UJ71 68-328)": "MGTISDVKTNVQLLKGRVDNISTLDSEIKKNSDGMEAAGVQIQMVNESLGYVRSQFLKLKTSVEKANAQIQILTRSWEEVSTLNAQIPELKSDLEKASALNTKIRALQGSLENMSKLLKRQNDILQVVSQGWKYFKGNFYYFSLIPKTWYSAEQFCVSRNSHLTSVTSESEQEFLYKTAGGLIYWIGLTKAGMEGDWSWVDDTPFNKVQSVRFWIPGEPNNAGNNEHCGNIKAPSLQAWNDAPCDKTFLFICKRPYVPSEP", "test": "SPR competition (inhibition) assay with trimeric Langerin ECD", "type": "binding", "details": "Biacore T200, CM3 chip with BSA-Manα1-3[Manα1-6]Man, Langerin ECD 20 μM, 25 mM Tris-HCl pH 8, 150 mM NaCl, 4 mM CaCl2, 0.05% P20, four parameter fit", "description": "The ECD of Langerin (residues 68–328) was overexpressed and purified as previously described ([Thépaut et al., 2009]). The SPR competition experiments were performed on a Biacore T200 using a CM3 series S sensor chip. Control flow cell 1 was functionalized with bovine serum albumin (BSA), whereas flow cell 2 and 3 were treated with 60 μg/mL BSA-Man α1-3[Manα1-6]Man (Dextra) in 10 mM NaOAc pH4 (final densities 2.062 and 2.183 RU, respectively). All flow cells were blocked with ethanolamine. […] Langerin ECD (20 μM) was injected at 5 μL/min, with or without inhibitor at increasing concentrations. The data were analyzed in Biacore BIAevaluation software using four parameter equation, and the IC50 was determined.", "units": {"IC50": "µM"}, "values": [
      {"compound": "CC(=O)N[C@@H](CCCCn1cc(CO[C@H]2O[C@H](CO)[C@@H](O)[C@H](O[C@H]3O[C@H](CO)[C@@H](O)[C@H](O)[C@@H]3O)[C@@H]2O)nn1)C(=O)NCC(=O)N[C@@H](CCCCn1cc(CO[C@H]2O[C@H](CO)[C@@H](O)[C@H](O[C@H]3O[C@H](CO)[C@@H](O)[C@H](O)[C@@H]3O)[C@@H]2O)nn1)C(=O)NCC(=O)N[C@@H](CCCCN)C(N)=O", "note": "[Ligand C2]", "IC50": 1420},
      {"compound": "CC(=O)N[C@@H](CCCCn1cc(CO[C@H]2O[C@H](CO)[C@@H](O)[C@H](O)[C@@H]2O)nn1)C(=O)NCC(=O)N[C@@H](CCCCn1cc(CO[C@H]2O[C@H](CO)[C@@H](O)[C@H](O)[C@@H]2O)nn1)C(=O)NCC(=O)N[C@@H](CCCCN)C(N)=O", "note": "[Ligand A2]", "IC50": "2420 ± 30"},
      {"compound": "CC(=O)N[C@@H](CCCCn1cc(CO[C@H]2O[C@H](CO)[C@@H](O)[C@H](O)[C@@H]2O[C@H]2O[C@H](CO)[C@@H](O)[C@H](O)[C@@H]2O)nn1)C(=O)NCC(=O)N[C@@H](CCCCN)C(N)=O", "note": "[Ligand B1]", "IC50": 4140},
      {"compound": "CC(=O)N[C@@H](CCCCn1cc(CO[C@H]2O[C@H](CO)[C@@H](O)[C@H](O)[C@@H]2O[C@H]2O[C@H](CO)[C@@H](O)[C@H](O)[C@@H]2O)nn1)C(=O)NCC(=O)N[C@@H](CCCCn1cc(CO[C@H]2O[C@H](CO)[C@@H](O)[C@H](O)[C@@H]2O[C@H]2O[C@H](CO)[C@@H](O)[C@H](O)[C@@H]2O)nn1)C(=O)NCC(=O)N[C@@H](CCCCN)C(N)=O", "note": "[Ligand B2]", "IC50": "181 ± 4"}
    ]},
    {"molecular_target": "T2, Langerin S-ECD (Homo sapiens, UniProt Q9UJ71)", "T2 construct": "The ECD of Langerin (residues 68–328) was overexpressed and purified as previously described; made in house", "T2 sequence (Q9UJ71 68-328)": "as above", "test": "SPR direct interaction assay on oriented Langerin S-ECD surface", "type": "binding", "details": "Langerin S-ECD captured via StreptagII on CM3 chip, flow 30 μL/min, same running buffer pH 8, 1:1 fit, apparent Kd, read-out: Kdapp", "description": "To determine the apparent Kd value, direct interaction experiments were executed on a T200 Biacore with a CM3 series S sensor chip. The Langerin ECD in this assay was functionalized with a […] on the N-terminus (Langerin S-ECD), for oriented capture on the sensor chip surface. The flow cells were functionalized with streptactin protein after EDC/NHS activation. Control flow cell 1 was functionalized with BSA, whereas another flow cell was functionalized with 100 μg/mL Langerin S-ECD via tag-specific capture and simultaneous amine coupling as previously described ([Porkolab et al., 2020]). An approximate density of about 2.609 RU was achieved on the chip surface. The compounds were injected in increasing concentrations with a flow rate of 30 μL/min in the previously mentioned running buffer. The data were analyzed in Biacore BIAevaluation software for direct interaction 1:1 calculation to determine the apparent Kd value.", "units": {"Kd": "µM"}, "values": [
      {"compound": "CC(=O)N[C@@H](CCCCn1cc(CO[C@H]2O[C@H](CO[C@H]3O[C@H](CO)[C@@H](O)[C@H](O)[C@@H]3O)[C@@H](O)[C@H](O)[C@@H]2O)nn1)C(=O)NCC(=O)N[C@@H](CCCCn1cc(CO[C@H]2O[C@H](CO[C@H]3O[C@H](CO)[C@@H](O)[C@H](O)[C@@H]3O)[C@@H](O)[C@H](O)[C@@H]2O)nn1)C(=O)NCC(=O)N[C@@H](CCCCN)C(N)=O", "note": "[Ligand D2]", "Kd": 16},
      {"compound": "CC(=O)N[C@@H](CCCCn1cc(CO[C@H]2O[C@H](CO[C@H]3O[C@H](CO)[C@@H](O)[C@H](O)[C@@H]3O)[C@@H](O)[C@H](O[C@H]3O[C@H](CO)[C@@H](O)[C@H](O)[C@@H]3O)[C@@H]2O)nn1)C(=O)NCC(=O)N[C@@H](CCCCn1cc(CO[C@H]2O[C@H](CO[C@H]3O[C@H](CO)[C@@H](O)[C@H](O)[C@@H]3O)[C@@H](O)[C@H](O[C@H]3O[C@H](CO)[C@@H](O)[C@H](O)[C@@H]3O)[C@@H]2O)nn1)C(=O)NCC(=O)N[C@@H](CCCCN)C(N)=O", "note": "[Ligand E2]", "Kd": 278}
    ]}
  ]
}
